Experimental data reported in patent US5182289A, “Heterobicyclic compounds having antiinflammatory activity” (Schering Corporation, priority 1990, dated 1993).
Where two headings read alike, the source gives them in different places.

System: Reversed Passive Arthus Reaction (RPAR) in the pleural cavity
Experiment: Reversed Passive Arthus Reaction (RPAR) in the pleural cavity: cells and fluid
Assay type: in vivo, male rats
Conditions: dose 25 mpk; for inhibition in vivo at 25 mg/kg: Rattus norvegicus, 4 h; for RPAR-Pleural Cavity Percent Inhibition cells / RPAR-Pleural Cavity Percent Inhibition fluid: Table 3A, formula (IIi)
Experimental: Reversed Passive Arthus Reaction (RPAR) Assay
Groups of 4 male rats were injected in the penile vein with antigen (1 mg BSA in 0.2 mL of saline per rat) and 0.5 hour later injected in the pleural cavity with antibody (1.0 mg antibody protein in the IgG fraction of rabbit anti-BSA in 0.2 mL). […] After 4 hours the animals were killed with CO2, and the pleural cavities were opened and the exudate drained into a graduated conical glass centrifuge tube containing indomethacin (1.8 ug) and nordihydroguaiaretic acid (NDGA) (15 ug) to block ex vivo metabolite synthesis. The volume of the exudate was measured. The cavity was then washed out with saline-EDTA to achieve a final volume of 5.0 mL. The number of cells were determined in a Colulter Counter. The cells were spun-down (1000×g) and the exudate supernatant was added to 4 volumes of 95% ethanol and samples were kept on ice for 30 minutes. After removal of the protein precipitate (2,500×g) the ethanol extract of the exudate was dried under N2 and then stored at -20° C. For radioimmunoassay (RIA) analysis the samples were redissolved in water to a volume of 1 mL per rat. Utilizing internally spiked samples, recovery of TXB2 (tritiated thromboxane B2) and LTE4 (tritiated leukotriene-E4) from exudates was determined to be 84±2% (SEM) and 89±2% (N=4), respectively. Exudate samples were directly assayed in duplicate with the commercial ^3 H-TXB2 RIA kit from New England Nuclear and the ^3 H-LTC4 /D4 /E4 kit from Amersham. The assay was validated using reversed-phase HPLC analysis of LTs in the standard procedure described by M. W. Musch, R. W. Bryant, C. Coscollaela, R. F. Myers and M. I. Siegel, Prostaglandins, Vol. 29, pp 405-430 (1985). Samples of ethanol exudate extract were "spiked" with ^3 H-LTs to follow HPLC purification and recovery.

[1] = read-out: RPAR-Pleural Cavity % Inhibition cells
[2] = read-out: RPAR-Pleural Cavity % Inhibition fluid

CC1(F)C(=O)N(c2ccccc2)c2ncccc21 (stereo not shown) [Compound 4, 1,3-dihydro-3-fluoro-3-methyl-1-phenyl-2H-pyrrolo[2,3-b]pyridin-2-one]
inhibition in vivo at 25 mg/kg [1]: 50%
inhibition in vivo at 25 mg/kg [2]: 35%

CC1(C)C(=S)N(c2ccccc2)c2ncccc21 [Compound 7, 1,3-dihydro-3,3-dimethyl-1-phenyl-2H-pyrrolo[2,3-b]pyridin-2-thione]
inhibition in vivo at 25 mg/kg [1]: 35%
inhibition in vivo at 25 mg/kg [2]: 33%

CSc1ccc(N2C(=O)C(C)(C)c3cccnc32)cc1 [Compound 10, 1,3-dihydro-3,3-dimethyl-1-[4-(methylthio)phenyl]-2H-pyrrolo[2,3-b]pyridin-2-one]
inhibition in vivo at 25 mg/kg [1]: 29%
inhibition in vivo at 25 mg/kg [2]: 37%

O=C(O)Cc1cccnc1Nc1cccc(C(F)(F)F)c1 [Compound 45, 2-(3-trifluoromethylphenylamino)-3-pyridine acetic acid]
RPAR-Pleural Cavity Percent Inhibition cells: 22%
RPAR-Pleural Cavity Percent Inhibition fluid: 14%

CC(C)(C(=O)O)c1cccnc1Nc1ccc(Cl)cc1 [Compound 46, sodium 2-(4-chlorophenylamino)-α,α-dimethyl-3-pyridine acetate]
RPAR-Pleural Cavity Percent Inhibition cells: 62%
RPAR-Pleural Cavity Percent Inhibition fluid: 71%

O=C(O)Cc1cccnc1Nc1ccc(Cl)c(Cl)c1 [Compound 47, sodium 2-(3,4-dichlorophenylamino)-3-pyridine acetate]
RPAR-Pleural Cavity Percent Inhibition cells: 16%
RPAR-Pleural Cavity Percent Inhibition fluid: 19%

O=C(O)Cc1cccnc1Nc1ccc(Cl)cc1 [Compound 48, sodium 2-(4-chlorophenylamino)-3-pyridine acetate]
RPAR-Pleural Cavity Percent Inhibition cells: 0%
RPAR-Pleural Cavity Percent Inhibition fluid: 0%

CC(C(=O)O)c1cccnc1Nc1ccc(Cl)cc1 (stereo not drawn) [Compound 49, sodium 2-(4-chlorophenylamino)-α-methyl-3-pyridine acetate]
RPAR-Pleural Cavity Percent Inhibition cells: 67%
RPAR-Pleural Cavity Percent Inhibition fluid: 54%
